Experimental data from article PMC6315989, “Red-Shifted FRET Biosensors for High-Throughput Fluorescence Lifetime Screening” (Biosensors, 2018).
Where “and” joins values, the source holds several entries; their conditions need not be identical. Equal entries are not always repeated.

What was measured:
[1] = target: T1, human cardiac calcium pump (SERCA2a) (Homo sapiens, UniProt P16615); assay: 2CS (O/M, OFP/MFP) red-shifted FRET fluorescence lifetime biosensor in living HEK293 cells; type: cell-based
T1 sequence (P16615 1-997 isoform P16615-2): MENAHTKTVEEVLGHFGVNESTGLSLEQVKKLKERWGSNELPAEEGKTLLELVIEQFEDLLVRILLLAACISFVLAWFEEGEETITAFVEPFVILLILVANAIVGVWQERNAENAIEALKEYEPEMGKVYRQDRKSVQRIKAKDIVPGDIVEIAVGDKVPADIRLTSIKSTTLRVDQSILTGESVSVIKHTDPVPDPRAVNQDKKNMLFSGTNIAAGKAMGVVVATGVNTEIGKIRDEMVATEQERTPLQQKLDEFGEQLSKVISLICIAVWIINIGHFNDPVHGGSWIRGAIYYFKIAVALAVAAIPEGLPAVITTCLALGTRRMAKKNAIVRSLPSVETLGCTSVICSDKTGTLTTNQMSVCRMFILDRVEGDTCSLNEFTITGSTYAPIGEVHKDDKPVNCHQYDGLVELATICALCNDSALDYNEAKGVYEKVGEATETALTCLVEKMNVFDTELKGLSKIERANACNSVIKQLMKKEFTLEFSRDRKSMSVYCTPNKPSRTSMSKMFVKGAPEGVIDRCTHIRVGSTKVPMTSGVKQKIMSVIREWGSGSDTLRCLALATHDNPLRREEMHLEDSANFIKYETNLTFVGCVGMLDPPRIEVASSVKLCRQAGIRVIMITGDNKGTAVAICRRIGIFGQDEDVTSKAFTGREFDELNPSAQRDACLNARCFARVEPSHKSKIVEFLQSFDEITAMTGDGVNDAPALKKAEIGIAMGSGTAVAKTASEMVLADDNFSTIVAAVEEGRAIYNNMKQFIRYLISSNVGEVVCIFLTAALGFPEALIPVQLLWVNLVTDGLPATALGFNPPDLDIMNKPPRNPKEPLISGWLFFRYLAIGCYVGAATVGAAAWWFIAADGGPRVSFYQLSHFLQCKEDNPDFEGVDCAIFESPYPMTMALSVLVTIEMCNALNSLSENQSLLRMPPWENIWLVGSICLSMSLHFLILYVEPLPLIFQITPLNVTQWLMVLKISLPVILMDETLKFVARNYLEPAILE
Protocol: (§1) HEK293 (originally derived from human embryonic kidney) cells were maintained in phenol red-free DMEM from Gibco (Waltham, MA, USA) supplemented with 2 mM GlutaMAX (Gibco), 10% fetal bovine serum (FBS), from Atlanta Biologicals (Lawrenceville, GA, USA), and 1 IU/mL penicillin/streptomycin (Gibco) and grown at 37 °C with 5% CO2. HEK293 cell lines were used to generate stable clones overexpressing the FRET-based biosensors (containing both donor and acceptor) and corresponding donor-only and acceptor-only control cell lines. Three days prior to screening, the stable cell lines were expanded into T225 flasks from Corning Inc. (Corning, NY, USA). On each day of screening and FRET hit retesting, approximately 30 million cells were harvested by treatment of Tryple from Invitrogen (Carlsbad, CA, USA), washed three times in phosphate buffer solution (PBS) with no magnesium or calcium from Thermo Scientific (Waltham, MA, USA) by centrifugation at 300 g, filtered using 70 µm cell strainers (Corning), and diluted to 10^6 cells/mL using an automated countess cell counter (Invitrogen). On each day of screening, cell viability was assessed using the trypan blue assay and found to be above 95% viable. After resuspension and dilution in PBS, the cells were continuously and gently stirred using a magnetic stir bar at room temperature, keeping the cells in suspension and evenly distributed to avoid clumping. Subcellular localization of each biosensor was evaluated using an Olympus FluoView FV1000 IX2 (Tokyo, Japan) Inverted Confocal microscope with FLIM detector. GFP and RFP signals were assessed using 473 and 561 nm laser excitation, respectively. Cell nuclei were identified by staining with DAPI, using 405 nm laser excitation.
(§2) Cells and compound mixtures were dispensed into 1536-well flat, black-bottom polypropylene plates from Greiner (Kremsmünste, Austria). Compounds were dispensed using either an automated Echo acoustic liquid dispenser from Labcyte (Sunnyvale, CA, USA) or a Mosquito liquid dispenser from TTP Labtech (Melbourn, UK). Cells were dispensed at room temperature using a Multidrop Combi liquid dispenser from Thermo (Pittsburg, PA, USA), at a density of 10^6 cells/mL, either 30 or 120 min before screening. For screening, cells were dispensed into assay plates containing the 1280-compund LOPAC (Library of Pharmacologically Active Compounds, from Invitrogen), dissolved in DMSO. The final DMSO concentration was <1%, and control wells were prepared containing cells and matching [DMSO]. The same methods were applied for subsequent FRET testing of the reproducible hits identified in the pilot screen. Reproducible FRET hits for retesting were purchased from Tocris (Minneapolis, MN, USA) or Invitrogen (Carlsbad, CA, USA), depending on their availability.
(§3) An in-depth description of the fluorescence instrumentation has previously been described in detail and can be found in our previous publication. The current instrument has been updated to a high-density microplate format (1536 wells, 5 μL/well), acquiring data from a full plate in less than three minutes with lifetime measurement precision (standard deviation/mean) of 1% or better. Fluorescence decay waveforms (with upper-end specifications of […] resolution, 640 data points over 128 ns range) for FLT determination were detected directly as previously described, except that two different light sources were used for GFP and OFP. In both cases, fluorescence was excited with a pulsed microchip laser producing nanosecond-wide pulses. As previously described for GFP, a 473 nm laser (Bright Solutions, Via degli Artigiani, Italy) was used, delivering pulses of ~1 μJ energy at a 5 kHz repetition rate. For OFP, a 532 nm laser (Teem Photonics SNG-20F-100, Meylan, France) was used, delivering pulses of ~0.3 μJ energy at a 20 kHz repetition rate. […]

[2] = target: T1, human cardiac calcium pump (SERCA2a); assay: 2CS (G/R, GFP/RFP) FRET fluorescence lifetime biosensor in living HEK293 cells; type: cell-based; set-up: expressed in transfected cells
Protocol: as §1, §2, §3

SERCA1a = target: T2, SERCA1a (Oryctolagus cuniculus, UniProt P04191); assay: Enzyme-coupled NADH-linked SERCA ATPase activity assay, skeletal SR vesicles; type: biochemical, rabbit
T2 construct: sarcoplasmic reticulum vesicles prepared from rabbit skeletal muscle (SERCA1a); from tissue; host or cells: rabbit skeletal muscle sarcoplasmic reticulum vesicles
T2 sequence (P04191 1-994 isoform P04191-2): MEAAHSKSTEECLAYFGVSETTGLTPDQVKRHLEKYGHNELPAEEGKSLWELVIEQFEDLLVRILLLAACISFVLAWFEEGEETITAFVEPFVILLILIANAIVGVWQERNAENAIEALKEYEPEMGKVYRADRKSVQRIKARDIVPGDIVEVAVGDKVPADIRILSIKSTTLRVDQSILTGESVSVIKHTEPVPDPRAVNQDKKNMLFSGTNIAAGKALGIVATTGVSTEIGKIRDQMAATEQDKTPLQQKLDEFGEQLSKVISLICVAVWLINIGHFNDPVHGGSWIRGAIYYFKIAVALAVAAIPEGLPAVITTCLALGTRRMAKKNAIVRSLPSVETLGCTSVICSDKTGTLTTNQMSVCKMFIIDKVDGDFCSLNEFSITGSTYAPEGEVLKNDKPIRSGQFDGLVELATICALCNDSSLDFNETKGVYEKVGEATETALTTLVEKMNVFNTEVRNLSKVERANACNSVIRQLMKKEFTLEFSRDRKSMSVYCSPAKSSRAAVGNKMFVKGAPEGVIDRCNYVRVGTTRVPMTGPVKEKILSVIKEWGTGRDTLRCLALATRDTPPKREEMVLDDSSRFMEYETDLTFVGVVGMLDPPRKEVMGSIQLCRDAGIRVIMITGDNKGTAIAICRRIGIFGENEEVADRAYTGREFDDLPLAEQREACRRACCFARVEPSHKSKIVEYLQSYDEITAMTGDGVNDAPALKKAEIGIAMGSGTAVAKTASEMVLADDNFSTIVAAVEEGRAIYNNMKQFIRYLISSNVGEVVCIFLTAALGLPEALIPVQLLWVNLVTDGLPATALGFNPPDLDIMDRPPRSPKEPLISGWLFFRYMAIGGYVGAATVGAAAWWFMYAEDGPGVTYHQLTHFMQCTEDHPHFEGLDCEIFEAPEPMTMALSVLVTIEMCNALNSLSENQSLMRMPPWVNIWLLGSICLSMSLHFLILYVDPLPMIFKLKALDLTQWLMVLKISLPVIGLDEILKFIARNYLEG
Protocol: (§4) Functional assays were performed using sarcoplasmic reticulum vesicles prepared from rabbit skeletal muscle (SERCA1a) and pig cardiac muscle (SERCA2a). An enzyme-coupled, NADH-linked ATPase assay was used to measure SERCA ATPase activity in 96-well microplates. Each well contained 50 mM MOPS (pH 7.0), 100 mM KCl, 5 mM MgCl2, 1 mM EGTA, 0.2 mM NADH, 1 mM phosphoenol pyruvate, 10 IU/mL of pyruvate kinase, 10 IU/mL of lactate dehydrogenase, 1 µM of the calcium ionophore A23187 from Sigma (St. Louis, MO, USA), and CaCl2 added to set free [Ca^2+] to 10 μM [23]; 4 μg/mL of SR vesicle, calcium, compound, and assay mix were incubated for 20 min. The assay was started upon the addition of ATP, at a final concentration of 5 mM (total volume to 200 μL), and the rate of decrease in NADH absorbance at 340 nm was determined using a SpectraMax Plus microplate spectrophotometer (Molecular Devices, Sunnyvale, CA, USA).

SERCA2a = target: T3, SERCA2a (Sus scrofa, UniProt P11607); assay: Enzyme-coupled NADH-linked SERCA ATPase activity assay, cardiac SR vesicles; type: biochemical, pig
T3 construct: rabbit skeletal muscle (SERCA1a) and pig cardiac muscle (SERCA2a); from tissue; host or cells: pig cardiac muscle sarcoplasmic reticulum vesicles
T3 sequence (P11607 1-997 isoform P11607-2): as the sequence (P16615 1-997 isoform P16615-2) above, with R371K, N403K, S538P, L570M, H576N, D667E, A713S, S865T, I889V, V963L counted along it
Protocol: as §4

[3] = system: donor-only controls and donor-acceptor "null" linker constructs; assay: Control biosensors (donor-only 1CS and donor-acceptor null linker) lifetime CRC in HEK293 cells; type: cell-based, human; conditions: G/R and O/M control cell lines
Protocol: HEK293 (originally derived from human embryonic kidney) cells were maintained in phenol red-free DMEM from Gibco (Waltham, MA, USA) supplemented with 2 mM GlutaMAX (Gibco), 10% fetal bovine serum (FBS), from Atlanta Biologicals (Lawrenceville, GA, USA), and 1 IU/mL penicillin/streptomycin (Gibco) and grown at 37 °C with 5% CO2. HEK293 cell lines were used to generate stable clones overexpressing the FRET-based biosensors (containing both donor and acceptor) and corresponding donor-only and acceptor-only control cell lines. Three days prior to screening, the stable cell lines were expanded into T225 flasks from Corning Inc. (Corning, NY, USA). […] On each day of screening, cell viability was assessed using the trypan blue assay and found to be above 95% viable. […] Subcellular localization of each biosensor was evaluated using an Olympus FluoView FV1000 IX2 (Tokyo, Japan) Inverted Confocal microscope with FLIM detector. GFP and RFP signals were assessed using 473 and 561 nm laser excitation, respectively. […]
An in-depth description of the fluorescence instrumentation has previously been described in detail and can be found in our previous publication. […] Fluorescence decay waveforms (with upper-end specifications of […] resolution, 640 data points over 128 ns range) for FLT determination were detected directly as previously described, except that two different light sources were used for GFP and OFP. In both cases, fluorescence was excited with a pulsed microchip laser producing nanosecond-wide pulses. […] These filters were selected to exclude acceptor fluorescence, as only the lifetime of the donor fluorescent protein is required to calculate FRET (Equation (1)). […] The observed time-resolved fluorescence waveform was analyzed as described previously, assuming a single-exponential decay, to determine the fluorescence lifetimes (FLT) for control samples containing donor only (τD) and FRET biosensor samples containing donor plus acceptor (τDA). FRET efficiency was calculated from (1) FRET=1−(τDA/τD) […]

[4] = known SERCA inhibitors, concentration-response curve, live HEK293 cells, 532 nm excitation, read-out: EC50 of lifetime change, h2CS2a (O/M)
[5] = known SERCA inhibitors, concentration-response curve, live HEK293 cells, 473 nm excitation, read-out: EC50 of lifetime change, h2CS2a (G/R)
[6] = LOPAC hits, 16-point CRC, Hill fit, apparent EC50 for FPL 64176 (no saturation), read-out: EC50 of lifetime change, 2CS (OFP/MFP)
[7] = LOPAC hits, 16-point CRC, Hill fit, apparent EC50 for FPL 64176 (no saturation), read-out: EC50 of lifetime change, 2CS (GFP/RFP)
[8] = mean ± SD, concentration-response curve

| EC50 [1, 6] | effect on Ca-dependent ATPase activity, SERCA1a (SERCA1a; CRC, free Ca2+ 10 μM) | effect on Ca-dependent ATPase activity, SERCA2a (SERCA2a; CRC, free Ca2+ 10 μM) | EC50 [2, 7] | SMILES | EC50 [1, 4] [µM] | EC50 [2, 5] [µM] | effect on FRET/lifetime of donor-only and null-linker controls [3] | other results |
| --- | --- | --- | --- | --- | --- | --- | --- | --- |
|  |  |  |  | CC(=O)C1=C(O)[C@@H]2[C@H]3c4c[nH]c5cccc(c45)C[C@H]3C(C)(C)N2C1=O [CPA, cyclopiazonic acid] | 0.626 | 0.715 |  |  |
| 21.1 µM and 21 µM | biphasic ATPase activation | biphasic ATPase activation | 26.5 µM and 26 µM | COC(=O)c1c(C)[nH]c(C)c1C(=O)c1ccccc1Cc1ccccc1 [FPL 64176] |  |  | no significant effect on FRET | FRET (lifetime) response in CRC, 2CS (O/M) ([1]; 16-point CRC): did not saturate at the highest concentrations; ATPase activation of SERCA2a in comparison to SERCA1a (EC50 and % change) (SERCA2a; cardiac versus skeletal isoform): significantly more effective; FRET (lifetime) response in CRC, 2CS (G/R) ([2]; 16-point CRC): did not saturate at the highest concentrations |
|  |  |  |  | Oc1ccc2ccccc2c1SSc1c(O)ccc2ccccc12 [IPA3] |  |  | significant concentration-dependent changes in fluorescence lifetime | concentration at which FRET abruptly and significantly decreased, 2CS (O/M) ([1]; non-sigmoidal CRC): approximately 10 μM; IC50 (SERCA1a; CRC, free Ca2+ 10 μM, read-out: apparent EC50 (IC50) of ATPase inhibition, SERCA1a): 9.5 µM; IC50 (SERCA2a; CRC, free Ca2+ 10 μM, read-out: apparent EC50 (IC50) of ATPase inhibition, SERCA2a): 8 µM; concentration at which FRET abruptly and significantly decreased, 2CS (G/R) ([2]; non-sigmoidal CRC): approximately 10 μM |
| 7.2 µM | biphasic | biphasic | 13.8 µM | c1ccc(C(NCc2cccnc2)(c2ccccc2)c2ccccc2)cc1 [UCL 2077, 3-(triphenylmethylaminomethyl)pyridine] |  |  | no significant effect on FRET | compound concentration at which ATPase activity peaked, SERCA1a (SERCA1a; biphasic CRC): around 3 micromolar; compound concentration at which ATPase activity peaked, SERCA2a (SERCA2a; biphasic CRC): around 3 micromolar |
|  |  |  |  | C/C=C(/C)C(=O)O[C@H]1C(C)=C2[C@H]([C@@H]1OC(=O)CCCCCCC)[C@@](C)(OC(C)=O)C[C@H](OC(=O)CCC)[C@@]1(O)[C@H]2OC(=O)[C@@]1(C)O [thapsigargin] | 0.0022 ± 0.0013 | 0.0044 ± 0.0012 |  | lifetime change Δτ at saturating compound, h2CS2a (O/M) [1, 8]: 258 ± 12 ps; lifetime change Δτ at saturating compound, h2CS2a (G/R) [2, 8]: 136 ± 10 ps |
